Here are results for 25 molecules from US12275719B2, “Small molecule inhibitors of galectin-3” (BRISTOL-MYERS SQUIBB COMPANY, priority 2019, dated 2025).

Structures are written as SMILES.

This assay concerns the target His-tagged recombinant human Gal-3 (hGal-3) (Homo sapiens, UniProt P17931). The assay is described as follows: Gal-3 HTRF assay (hGal-3 / B-ASF binding inhibition). As to the method: ASSAY BUFFER Composition: 25 mM HEPES, 100 mM NaCl, 0.005% Tween 20, 0.05% BSA prepared in sterile water (all reagents from Sigma).
Positive Control: 100% DMSO (1 μL)+His-tagged hGal-3 (20 μL)+β-ASF (20 μL)+Anti-His Terbium Antibody (5 μL)+Strep d2 Antibody (5 μL).
Negative Control: 100% DMSO (1 μL)+His-tagged hGal-3 (20 μL)+Anti His Terbium Antibody (5 μL)+Strep d2 Aantibody (5 μL).
PROTOCOL: The Gal-3 assays were performed in 384 white Opti plates in three replicates at room temperature with gentle shaking at 250-300 rpm From the original stocks, […] working stock concentrations of His-tagged recombinant human Gal-3 (hGal-3) and that of B-ASF were prepared. From the working stock, 20 μL of hGal-3 (15 nM) and 20 μL B-ASF (15 nM) were added to the plates. In Negative Control, only hGal-3 was added. A concentration range of 50× working stocks were prepared for the compounds in 100% DMSO. Aliquots of 1 μL of the compounds were added to the wells and pre-incubated with 20 μL hGal-3 per well for 30 minutes Then 20 μL B-ASF were added and incubated for another 1 hour. To detect the signal, 5 μL (final conc. of 1.0 nM) terbium labelled Anti-His antibody was added and incubated for 30 min followed by adding 5 μL (final conc. of 20 nM) Streptavidin d2 and incubation for another 1 hour. The assay signal was detected using HTRF screen protocol (Excitation wavelength=340 nm, emission wavelength=615 nm/665 nm) on Envision 2104 Multilabel Reader. Data analysed using Toolset and Curve Master. Results are reported in the experimental section (IC50 in μM).
Background: TR-FRET usually uses a lanthanide donor and a delayed reading to cut background.

Setting [1] is: Examples 26 to 29 and 66 to 68, HTRF, 15 nM hGal-3, 15 nM B-ASF.

His-tagged recombinant human Gal-3 (hGal-3), sequence (P17931 whole entry): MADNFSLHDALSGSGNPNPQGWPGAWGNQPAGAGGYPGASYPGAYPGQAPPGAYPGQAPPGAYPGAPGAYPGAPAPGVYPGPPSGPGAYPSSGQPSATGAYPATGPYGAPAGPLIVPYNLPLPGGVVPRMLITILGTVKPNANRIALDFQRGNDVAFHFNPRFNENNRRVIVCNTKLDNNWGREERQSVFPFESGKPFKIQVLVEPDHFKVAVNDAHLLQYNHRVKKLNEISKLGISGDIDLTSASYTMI

By IC50 is commonly meant the concentration that gives 50% inhibition. With `OC[C@H]1O[C@@H](c2nncn2-c2cc(Cl)ccc2OC(F)(F)F)[C@H](O)[C@@H](n2cc(-c3ccc(Cl)c(F)c3F)nn2)[C@H]1O` [Example 51], the IC50 (table of Examples 30 to 65) is 14 nM.
Regarding `OC[C@H]1O[C@@H](c2nncn2-c2cc(Cl)ccc2C(F)(F)F)[C@H](O)[C@@H](n2cc(-c3ccc(Cl)c(F)c3F)nn2)[C@H]1O` [Example 52], the IC50 (table of Examples 30 to 65) was 9.7 nM.
For `OC[C@H]1O[C@@H](c2nncn2-c2cc(Cl)ccc2OC(F)(F)F)[C@H](OCC(F)F)[C@@H](n2cc(-c3ccc(Cl)c(F)c3F)nn2)[C@H]1O` [Example 53], the IC50 (table of Examples 30 to 65) turned out to be 19 nM.
As to `OC[C@H]1O[C@@H](c2nncn2-c2cc(Cl)ccc2C(F)(F)F)[C@H](OCC(F)F)[C@@H](n2cc(-c3ccc(Cl)c(F)c3F)nn2)[C@H]1O` [Example 54], the IC50 (table of Examples 30 to 65) is 12 nM.
Still for that read-out and setting: then `CO[C@@H]1[C@@H](n2cc(-c3c(F)c(F)c(Br)c(F)c3F)nn2)[C@@H](O)[C@@H](CO)O[C@H]1c1nncn1-c1cc(Cl)ccc1OC(F)(F)F` [Example 55], with 11 nM; and `CO[C@@H]1[C@@H](n2cc(-c3ccc(Cl)c(F)c3F)nn2)[C@@H](O)[C@@H](CO)O[C@H]1c1nncn1-c1cc(Cl)ccc1OC(F)(F)F` [Example 56], with 11 nM; and `OC[C@H]1O[C@@H](c2nncn2-c2cc(Cl)ccc2OC(F)(F)F)[C@H](OCC(F)F)[C@@H](n2cc(-c3ccc(Br)c(F)c3F)nn2)[C@H]1O` [Example 57], with 21 nM.
For `OC[C@H]1O[C@@H](c2nncn2-c2cc(Cl)ccc2C(F)(F)F)[C@H](OCC(F)(F)F)[C@@H](n2cc(-c3ccc(Br)c(F)c3F)nn2)[C@H]1O` [Example 58], where the note is “table of Examples 30 to 65”, the IC50 is 14 nM.
On the same count and under the same terms, then `OC[C@H]1O[C@@H](c2nncn2-c2cc(Cl)ccc2OC(F)(F)F)[C@H](OCC(F)(F)F)[C@@H](n2cc(-c3ccc(Br)c(F)c3F)nn2)[C@H]1O` [Example 59], with 57 nM; and `OC[C@H]1O[C@@H](c2nncn2-c2cc(Cl)ccc2C(F)(F)F)[C@H](OCC(F)(F)F)[C@@H](n2cc(-c3ccc(Cl)c(F)c3F)nn2)[C@H]1O` [Example 60], with 14 nM; and `OC[C@H]1O[C@@H](c2nncn2-c2cc(Cl)ccc2OC(F)(F)F)[C@H](OCC(F)(F)C(F)F)[C@@H](n2cc(-c3ccc(Br)c(F)c3F)nn2)[C@H]1O` [Example 61], with 49 nM.
Same read-out and setting: then `OC[C@H]1O[C@@H](c2nncn2-c2cc(Cl)ccc2C(F)(F)F)[C@H](OCC(F)F)[C@@H](n2cc(-c3ccc(Br)c(F)c3)nn2)[C@H]1O` [Example 62], with 40 nM; and `OC[C@H]1O[C@@H](c2nncn2-c2cc(Cl)ccc2C(F)(F)F)[C@H](OCC(F)(F)F)[C@@H](n2cc(-c3ccc(Br)c(F)c3)nn2)[C@H]1O` [Example 63], with 78 nM.
Consider `OC[C@H]1O[C@@H](c2nncn2-c2cc(Cl)ccc2C(F)(F)F)[C@H](OCC(F)(F)C(F)F)[C@@H](n2cc(-c3ccc(Br)c(F)c3)nn2)[C@H]1O` [Example 64], for which the IC50 (table of Examples 30 to 65) is 100 nM.
Consider `OC[C@H]1O[C@@H](c2nncn2-c2cc(Cl)ccc2C(F)(F)F)[C@H](OCC(F)(F)C(F)F)[C@@H](n2cc(-c3ccc(Br)c(F)c3F)nn2)[C@H]1O` [Example 65], for which the IC50 (table of Examples 30 to 65) was 18 nM.
On to `Cn1nc([C@@H]2O[C@H](CO)[C@H](O)[C@H](n3cc(-c4ccc(Br)c(F)c4F)nn3)[C@H]2O)n(-c2cc(Cl)ccc2C(F)(F)F)c1=S` [Example 66, 5-((2S,3R,4R,5R,6R)-4-(4-(4-bromo-2,3-difluorophenyl)-1H-1,2,3-triazol-1-yl)-3,5-dihydroxy-6-(hydroxymethyl)tetrahydro-2H-pyran-2-yl)-4-(5-chloro-2-(trifluoromethyl)phenyl)-2-methyl-2,4-dihydro-3H-1,2,4-triazole-3-thione], for which, under setting [1], the IC50 worked out at 750 nM.
Regarding `Cn1nc([C@@H]2O[C@H](CO)[C@H](O)[C@H](n3cc(-c4ccc(Br)c(F)c4F)nn3)[C@H]2O)n(-c2cc(Cl)ccc2C(F)(F)F)c1=S` [Example 67, 5-((2S,3R,4R,5R,6R)-4-(4-(4-bromo-2,3-difluorophenyl)-1H-1,2,3-triazol-1-yl)-3,5-dihydroxy-6-(hydroxymethyl)tetrahydro-2H-pyran-2-yl)-4-(5-chloro-2-(trifluoromethyl)phenyl)-2-methyl-2,4-dihydro-3H-1,2,4-triazole-3-thione], under setting [1], the IC50 came out at 9.3 nM.
With `OC[C@H]1O[C@@H](c2nncn2-c2ccc3ncsc3c2)[C@H](OCC(F)F)[C@@H](n2cc(-c3cc(F)c(Br)c(F)c3)nn2)[C@H]1O` [Example 68, (2R,3R,4S,5R,6S)-6-(4-(benzo[d]thiazol-6-yl)-4H-1,2,4-triazol-3-yl)-4-(4-(4-bromo-3,5-difluorophenyl)-1H-1,2,3-triazol-1-yl)-5-(2,2-difluoroethoxy)-2-(hydroxymethyl)tetrahydro-2H-pyran-3-ol], the IC50 under setting [1] is 25 nM.
On to `OC[C@H]1O[C@@H](c2nncn2-c2cc(Cl)cc3cccnc23)[C@H](OCC(F)F)[C@@H](n2cc(-c3cc(F)c(Br)c(F)c3)nn2)[C@H]1O` [Example 69], for which the IC50 (table of Examples 69 to 75) was found to be 130 nM.
As for `OC[C@H]1O[C@@H](c2nncn2-c2ccc3ncsc3c2)[C@H](OCC(F)F)[C@@H](n2cc(-c3ccc(Br)c(F)c3F)nn2)[C@H]1O` [Example 70], the IC50 (table of Examples 69 to 75) came out at 11 nM.
Regarding `Cc1nc2ccc(-n3cnnc3[C@@H]3O[C@H](CO)[C@H](O)[C@H](n4cc(-c5ccc(Br)c(F)c5F)nn4)[C@H]3OCC(F)F)cc2s1` [Example 71], the IC50 (table of Examples 69 to 75) is 20 nM.
Turning to `Cc1nc2ccc(-n3cnnc3[C@@H]3O[C@H](CO)[C@H](O)[C@H](n4cc(-c5cc(F)c(Cl)c(F)c5)nn4)[C@H]3OCC(=O)O)cc2s1` [Example 72], where the note is “table of Examples 69 to 75”, the IC50 was 16 nM.
The same measure, in the same setting: to `CNCCN(C)C(=O)CO[C@@H]1[C@@H](n2cc(-c3cc(F)c(Cl)c(F)c3)nn2)[C@@H](O)[C@@H](CO)O[C@H]1c1nncn1-c1ccc2nc(C)sc2c1` [Example 73] belongs 54 nM.
As to `Cc1nc2ccc(-n3cnnc3[C@@H]3O[C@H](CO)[C@H](O)[C@H](n4cc(-c5cc(F)c(Cl)c(Cl)c5)nn4)[C@H]3O)cc2s1` [Example 74], where the note is “table of Examples 69 to 75”, the IC50 worked out at 35 nM.
Same read-out and setting: to `Cc1nc2ccc(-n3cnnc3[C@@H]3O[C@H](CO)[C@H](O)[C@H](n4cc(-c5cc(F)c(Cl)c(Cl)c5)nn4)[C@H]3OCC(=O)O)cc2s1` [Example 75] belongs 18 nM.
